Measurements as given in patent publication US20230173087A1, “ANTIBODY DRUG CONJUGATES WITH CLEAVABLE LINKERS” (Heidelberg Pharma Research GmbH, priority 2019, published 2023).

Legend:
[1] = system: SKBR-3 (breast cancer) cells; experiment: Cytotoxicity, chemiluminescent BrdU-ELISA incorporation assay on SKBR-3 cells; type: cell-based; details: as antibody conjugate
Experimental: Cytotoxic activity of Trastuzumab (Anti-Her2neu-specific antibody)-amatoxin conjugates was evaluated in vitro on HER2-positive tumor cell lines SKBR-3 (breast cancer), NCI-N87 (gastric cancer), and JIMT-1 (breast cancer) using a chemiluminescent BrdU-ELISA incorporation assay (Roche).

RNA polymerase II = RNA polymerase II (Homo sapiens, UniProt P24928+P30876); details: read-out: KD of complex between amanitin and RNA polymerase II; cited from earlier work

Row | Compound | effectiveness in vitro compared to HDP 30.1699 [1] | Kd (RNA polymerase II) [nM]
1 | CC[C@H](C)[C@@H]1NC(=O)CNC(=O)C2Cc3c([nH]c4cc(O)ccc34)[S@+]([O-])CC(NC(=O)CNC1=O)C(=O)NC(CC(N)=O)C(=O)N1CC(O)CC1C(=O)N[C@@H]([C@@H](C)[C@@H]1COC(c3ccc(NC(=O)[C@H](C)NC(=O)C(NC(=O)CCN4C(=O)C=CC4=O)C(C)C)cc3)O1)C(=O)N2 (stereo partly drawn) [HDP 30.2684, α-Amanitin-(BMP-Val-Ala-4-amino-benzylidenacetal)] | as effective as HDP 30.1699 | –
2 | amanitin | – | 3
